From ChEMBL document CHEMBL1770059, “Identification of chemicals to inhibit the kinase activity of leucine-rich repeat kinase 2 (LRRK2), a Parkinson's disease-associated protein” (Bioorg Med Chem Lett, 2011)

Tests used:
[1] = molecular target: Glycogen synthase kinase-3 beta (Homo sapiens) (UniProt P49841); experiment: Inhibition of GSK3-beta assessed as residual activity of enzyme at 25 uM
[2] = Neurotoxicity in rat primary cortical neurons assessed as cell survival at 100 uM after 24 hrs by MTT assay; type: toxicity, cell-based; conditions: cerebral cortex neuron
[3] = molecular target: T1, Serine/threonine-protein kinase TAO1 (Homo sapiens) (UniProt Q7L7X3); experiment: Inhibition of TAO1 assessed as residual activity of enzyme at 25 uM
T1 sequence (whole entry): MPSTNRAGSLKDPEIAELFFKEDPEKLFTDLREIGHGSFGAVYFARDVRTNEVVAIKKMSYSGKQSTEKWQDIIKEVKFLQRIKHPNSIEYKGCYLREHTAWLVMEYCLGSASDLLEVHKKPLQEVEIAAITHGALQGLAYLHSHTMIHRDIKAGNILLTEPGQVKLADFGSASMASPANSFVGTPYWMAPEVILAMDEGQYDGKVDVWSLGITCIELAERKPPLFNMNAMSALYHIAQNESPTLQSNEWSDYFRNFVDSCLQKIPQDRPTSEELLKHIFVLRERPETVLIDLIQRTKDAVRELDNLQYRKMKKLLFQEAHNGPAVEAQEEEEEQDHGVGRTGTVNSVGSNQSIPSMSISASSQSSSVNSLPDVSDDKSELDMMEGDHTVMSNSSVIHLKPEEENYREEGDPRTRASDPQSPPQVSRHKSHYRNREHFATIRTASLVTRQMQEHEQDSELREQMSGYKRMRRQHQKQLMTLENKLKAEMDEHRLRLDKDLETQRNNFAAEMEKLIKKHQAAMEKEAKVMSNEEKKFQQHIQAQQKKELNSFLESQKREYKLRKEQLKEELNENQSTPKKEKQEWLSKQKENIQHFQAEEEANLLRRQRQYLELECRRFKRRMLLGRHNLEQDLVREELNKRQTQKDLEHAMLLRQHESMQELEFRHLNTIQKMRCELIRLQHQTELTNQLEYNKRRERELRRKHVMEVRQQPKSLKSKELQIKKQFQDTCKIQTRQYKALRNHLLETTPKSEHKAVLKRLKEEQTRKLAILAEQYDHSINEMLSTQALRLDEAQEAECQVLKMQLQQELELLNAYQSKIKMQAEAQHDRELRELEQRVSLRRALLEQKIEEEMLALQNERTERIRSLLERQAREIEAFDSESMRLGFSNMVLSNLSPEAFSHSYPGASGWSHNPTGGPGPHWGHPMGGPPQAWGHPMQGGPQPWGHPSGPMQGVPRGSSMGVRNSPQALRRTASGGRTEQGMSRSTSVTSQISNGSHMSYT

[4] = molecular target: Casein kinase I isoform alpha (Homo sapiens) (UniProt P48729); experiment: Inhibition of CK1 assessed as residual activity of enzyme at 10 uM
Casein kinase I isoform alpha (Homo sapiens), sequence (P48729 2-337 limits assumed): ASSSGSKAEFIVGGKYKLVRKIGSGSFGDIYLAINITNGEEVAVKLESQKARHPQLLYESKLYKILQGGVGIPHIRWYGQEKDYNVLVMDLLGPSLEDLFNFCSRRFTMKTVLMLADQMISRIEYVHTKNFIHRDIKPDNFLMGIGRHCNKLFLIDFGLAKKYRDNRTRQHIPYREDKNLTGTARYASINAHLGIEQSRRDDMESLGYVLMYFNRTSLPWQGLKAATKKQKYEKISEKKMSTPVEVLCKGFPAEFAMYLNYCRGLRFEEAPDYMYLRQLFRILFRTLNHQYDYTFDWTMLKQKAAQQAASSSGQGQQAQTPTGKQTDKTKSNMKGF

[5] = molecular target: T2, Serine/threonine-protein kinase TAO2 (Homo sapiens) (UniProt Q9UL54); experiment: Inhibition of TAO2 assessed as residual activity of enzyme at 25 uM
T2 sequence (whole entry): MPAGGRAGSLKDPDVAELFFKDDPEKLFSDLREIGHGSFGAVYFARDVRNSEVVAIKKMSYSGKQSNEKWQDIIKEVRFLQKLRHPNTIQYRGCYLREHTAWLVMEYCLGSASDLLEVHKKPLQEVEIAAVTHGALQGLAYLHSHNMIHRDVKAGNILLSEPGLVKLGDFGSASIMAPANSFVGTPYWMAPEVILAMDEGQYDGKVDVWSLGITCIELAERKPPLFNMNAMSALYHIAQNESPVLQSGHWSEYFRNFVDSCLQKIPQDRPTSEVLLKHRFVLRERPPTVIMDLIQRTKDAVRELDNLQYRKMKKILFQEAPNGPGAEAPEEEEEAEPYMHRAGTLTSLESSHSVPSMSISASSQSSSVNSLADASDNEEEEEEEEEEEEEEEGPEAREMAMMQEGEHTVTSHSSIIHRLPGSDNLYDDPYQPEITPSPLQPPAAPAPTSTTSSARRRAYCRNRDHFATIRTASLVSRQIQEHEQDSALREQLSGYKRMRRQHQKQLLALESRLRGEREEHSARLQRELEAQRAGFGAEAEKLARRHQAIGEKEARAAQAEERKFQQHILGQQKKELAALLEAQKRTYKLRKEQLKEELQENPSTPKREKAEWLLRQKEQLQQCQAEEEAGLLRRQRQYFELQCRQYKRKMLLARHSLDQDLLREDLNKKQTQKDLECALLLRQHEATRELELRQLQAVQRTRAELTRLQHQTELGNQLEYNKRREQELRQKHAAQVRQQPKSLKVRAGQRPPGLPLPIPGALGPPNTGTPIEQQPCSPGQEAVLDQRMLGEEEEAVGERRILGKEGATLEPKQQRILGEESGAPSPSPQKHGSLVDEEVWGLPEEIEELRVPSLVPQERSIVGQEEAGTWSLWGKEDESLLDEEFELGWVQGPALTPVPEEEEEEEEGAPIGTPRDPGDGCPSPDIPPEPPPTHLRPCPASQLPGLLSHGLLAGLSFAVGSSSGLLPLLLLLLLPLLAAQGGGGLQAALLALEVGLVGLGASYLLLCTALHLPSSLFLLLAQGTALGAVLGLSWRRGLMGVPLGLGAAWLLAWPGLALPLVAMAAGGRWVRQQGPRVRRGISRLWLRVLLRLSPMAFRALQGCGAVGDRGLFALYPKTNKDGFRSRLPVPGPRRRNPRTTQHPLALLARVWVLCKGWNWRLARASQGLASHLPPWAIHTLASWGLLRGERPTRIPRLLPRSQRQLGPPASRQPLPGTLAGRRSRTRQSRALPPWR

[6] = Neurotoxicity in rat primary cortical neurons assessed as cell survival at 10 uM after 24 hrs by MTT assay; type: toxicity, cell-based, Cerebral cortex neuron; conditions: read-out: Activity
[7] = molecular target: Cyclin-dependent kinase 5/CDK5 activator 1 (Homo sapiens) (UniProt Q00535+Q15078); experiment: Inhibition of CDK5/p25 assessed as residual activity of enzyme at 25 uM; type: protein-complex assay
Cyclin-dependent kinase 5/CDK5 activator 1 (Homo sapiens), sequence (Q00535 whole entry): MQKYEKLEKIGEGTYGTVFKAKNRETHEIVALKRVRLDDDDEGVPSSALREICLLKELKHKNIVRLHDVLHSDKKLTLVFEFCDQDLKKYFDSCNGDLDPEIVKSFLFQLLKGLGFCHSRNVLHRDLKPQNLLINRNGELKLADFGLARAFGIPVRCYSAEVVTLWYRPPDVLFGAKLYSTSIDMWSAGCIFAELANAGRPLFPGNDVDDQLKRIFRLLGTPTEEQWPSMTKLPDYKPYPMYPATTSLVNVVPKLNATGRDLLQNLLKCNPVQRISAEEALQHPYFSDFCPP
Cyclin-dependent kinase 5/CDK5 activator 1 (Homo sapiens), sequence (Q15078 99-307 partner limits assumed): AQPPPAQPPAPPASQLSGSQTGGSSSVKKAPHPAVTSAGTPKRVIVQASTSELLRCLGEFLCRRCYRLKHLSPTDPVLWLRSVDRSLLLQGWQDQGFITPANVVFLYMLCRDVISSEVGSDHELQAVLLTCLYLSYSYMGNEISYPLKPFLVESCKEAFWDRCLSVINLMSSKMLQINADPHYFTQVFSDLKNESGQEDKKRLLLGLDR

[8] = molecular target: T1, Serine/threonine-protein kinase TAO1 (Homo sapiens); experiment: Inhibition of TAO1 assessed as residual activity of enzyme at 10 uM
[9] = molecular target: RAF proto-oncogene serine/threonine-protein kinase (Homo sapiens) (UniProt P04049); experiment: Inhibition of c-Raf assessed as residual activity of enzyme at 10 uM
RAF proto-oncogene serine/threonine-protein kinase (Homo sapiens), sequence (P04049 whole entry): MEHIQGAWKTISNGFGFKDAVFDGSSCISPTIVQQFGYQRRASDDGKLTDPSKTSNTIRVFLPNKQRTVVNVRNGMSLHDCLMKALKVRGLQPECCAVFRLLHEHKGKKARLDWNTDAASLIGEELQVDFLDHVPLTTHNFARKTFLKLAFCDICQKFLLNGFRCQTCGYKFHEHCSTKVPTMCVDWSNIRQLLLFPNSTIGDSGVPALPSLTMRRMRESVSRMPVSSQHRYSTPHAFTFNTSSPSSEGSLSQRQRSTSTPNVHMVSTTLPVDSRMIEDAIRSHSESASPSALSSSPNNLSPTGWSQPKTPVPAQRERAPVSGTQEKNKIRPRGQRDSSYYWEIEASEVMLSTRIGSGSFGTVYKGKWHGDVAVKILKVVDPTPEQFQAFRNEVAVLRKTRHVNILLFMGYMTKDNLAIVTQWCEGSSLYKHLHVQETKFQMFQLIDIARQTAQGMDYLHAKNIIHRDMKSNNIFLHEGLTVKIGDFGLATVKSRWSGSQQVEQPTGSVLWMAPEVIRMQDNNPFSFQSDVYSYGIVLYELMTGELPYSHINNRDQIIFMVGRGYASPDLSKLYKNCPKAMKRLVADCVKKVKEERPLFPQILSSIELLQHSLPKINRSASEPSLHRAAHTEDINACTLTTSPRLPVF

Glycogen synthase kinase-3 beta (Homo sapiens), sequence (P49841 whole entry, looked up): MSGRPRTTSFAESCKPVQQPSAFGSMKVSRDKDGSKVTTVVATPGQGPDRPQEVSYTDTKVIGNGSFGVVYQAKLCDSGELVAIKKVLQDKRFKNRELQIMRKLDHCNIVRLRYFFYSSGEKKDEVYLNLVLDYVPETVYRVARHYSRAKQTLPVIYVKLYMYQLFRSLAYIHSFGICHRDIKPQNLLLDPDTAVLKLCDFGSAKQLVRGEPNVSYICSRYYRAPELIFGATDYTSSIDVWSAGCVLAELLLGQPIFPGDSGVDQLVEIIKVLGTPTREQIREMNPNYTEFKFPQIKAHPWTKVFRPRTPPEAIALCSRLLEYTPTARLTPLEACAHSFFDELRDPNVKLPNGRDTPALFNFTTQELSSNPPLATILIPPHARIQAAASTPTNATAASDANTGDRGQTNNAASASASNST

Activity [1]: 94%
Activity [3]: 84%
Activity [4]: 77%
Activity [5]: 84%
Activity [7]: 81%
Activity [8]: 88%
Activity [9]: 92%
Compound: Cc1cc(N/N=C/c2ccncc2)nc2ccccc12
Activity [2]: Toxic
viability at 24 h, 10 µM [6]: 85%
